Laboratory results taken from patent publication US20250127695A1, “Use of Branched Medium-Chain Glycerol Ethers as Active Antidandruff Ingredients” (Henkel AG & Co. KGaA, priority 2022, published 2025).

What was measured:
[1] = system: barrier markers (transglutaminase1, filaggrin, decorin, involucrin, and loricrin); experiment: gene expression of barrier markers in in vitro tests on artificial skin models; type: cell-based; conditions: various concentrations, FIG. 2
Description: The gene expression of all investigated barrier markers (transglutaminase1, filaggrin, decorin, involucrin, and loricrin) was reduced by the treatment.

Malassezia furfur = experiment: quantitative suspension test of Malassezia furfur; type: cell-based; conditions: incubation ≤60 min at 37° C. in a buffer solution, FIG. 1
Procedure: The efficacy against dandruff was investigated by is of a suspension test. Various formulations were incubated for a certain time (≤60 min) together with the yeast Malassezia furfur, which was present in cell counts of 10^5-10^6 CFU/mL, at 37° C. in a buffer solution.
After incubation, the cell count of the yeast was determined by is of a culture method (growth on Sabouraud Agar). The difference between this value and the respective initial value is a measure of the microbicidal efficacy of the respective anti-dandruff compound.
One of the causes of dandruff formation is the excessive growth of various microorganisms on the scalp. Yeasts of the genus Malassezia play a particularly important role here. The growth-inhibiting effect of various anti-dandruff compounds in this experiment therefore indicates anti-dandruff efficacy (FIG. 1).

Row | SMILES | gene expression of barrier markers (transglutaminase1, filaggrin, decorin, involucrin, loricrin) [1] | release of interleukin 8 (inflammatory marker) (interleukin 8) | microbicidal efficacy against Malassezia (cell count of the yeast after incubation vs initial value) (Malassezia furfur)
1 | Cc1cc(CC(C)CC(C)(C)C)n(O)c(=O)c1.NCCO (stereo not shown) [Octopirox, Piroctone Olamine] | reduced | does not negatively influence the release of inflammatory markers | –
2 | CCCCCCC(C)OCC(O)CO (stereo not shown) [methylheptyl glycerin] | did not lead to a significant decrease in gene expression | – | killing effect on the Malassezia fungus
